Assay results published in ChEMBL document CHEMBL1667854, “6''-Azido-6''-deoxy-UDP-N-acetylglucosamine as a glycosyltransferase substrate” (Bioorg Med Chem Lett, 2011).
The source made the active and inactive calls. The calls are words filed in the database; no cut-off is given here.

Molecular target: T1, UDP-N-acetylglucosamine--peptide N-acetylglucosaminyltransferase 110 kDa subunit (Homo sapiens) (UniProt O15294)
T1 sequence (whole entry): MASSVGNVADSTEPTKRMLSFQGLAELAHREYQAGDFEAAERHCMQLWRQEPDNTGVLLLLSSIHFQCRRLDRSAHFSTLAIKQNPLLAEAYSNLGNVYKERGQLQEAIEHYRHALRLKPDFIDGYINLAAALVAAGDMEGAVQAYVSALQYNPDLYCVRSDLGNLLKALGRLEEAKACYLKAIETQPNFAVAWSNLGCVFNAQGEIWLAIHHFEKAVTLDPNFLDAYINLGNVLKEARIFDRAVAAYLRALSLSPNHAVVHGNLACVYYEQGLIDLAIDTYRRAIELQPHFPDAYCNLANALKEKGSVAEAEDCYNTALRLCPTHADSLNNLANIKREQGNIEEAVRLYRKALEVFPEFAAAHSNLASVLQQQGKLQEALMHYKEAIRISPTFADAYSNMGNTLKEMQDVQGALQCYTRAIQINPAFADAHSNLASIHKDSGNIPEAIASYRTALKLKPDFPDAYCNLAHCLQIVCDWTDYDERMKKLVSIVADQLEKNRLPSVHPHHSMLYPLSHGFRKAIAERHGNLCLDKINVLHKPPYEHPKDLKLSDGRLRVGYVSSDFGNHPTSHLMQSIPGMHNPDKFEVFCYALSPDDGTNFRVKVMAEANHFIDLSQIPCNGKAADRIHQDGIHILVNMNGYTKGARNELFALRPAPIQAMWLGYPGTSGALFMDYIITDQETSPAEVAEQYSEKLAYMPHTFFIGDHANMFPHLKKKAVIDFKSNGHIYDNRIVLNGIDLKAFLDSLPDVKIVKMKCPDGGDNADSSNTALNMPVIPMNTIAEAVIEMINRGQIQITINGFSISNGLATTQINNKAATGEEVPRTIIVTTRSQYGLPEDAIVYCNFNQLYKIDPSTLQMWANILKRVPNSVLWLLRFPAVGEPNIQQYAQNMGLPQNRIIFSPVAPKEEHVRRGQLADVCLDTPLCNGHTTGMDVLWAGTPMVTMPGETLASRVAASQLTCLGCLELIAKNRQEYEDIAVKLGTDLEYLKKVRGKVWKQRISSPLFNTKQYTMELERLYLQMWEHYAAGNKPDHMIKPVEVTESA
Assay: Activity at human OGT by Western blot analysis

| Compound | Activity |
| --- | --- |
| CC(=O)N[C@@H]1[C@@H](O)[C@H](O)[C@@H](CN=[N+]=[N-])O[C@@H]1O | Active |
| CC(=O)N[C@H]1[C@@H](OP(=O)(O)OP(=O)(O)OC[C@H]2O[C@@H](n3ccc(=O)[nH]c3=O)[C@H](O)[C@@H]2O)O[C@H](CN=[N+]=[N-])[C@@H](O)[C@@H]1O | Active |
